Test [1] concerns Helicoverpa armigera larvae. Nature of the test: Bioassay with cotton leaf artificial diet, growth and development of larvae. The class given is in vivo. The protocol: Helicoverpa armigera larvae were raised on an artificial diet based on cotton leaves. One hundred ml of cotton leaf artificial diet was composed of 3 g cotton leaf powder (see below), 2 g Tortula yeast, 2.4 g wheat germ, 3.2 g ascorbic acid, 0.08 g sorbic acid, 0.16 g paraben (mould inhibitor), 0.08 ml linseed oil, 0.16 ml wheatgerm oil, 0.028 g ampicillin, 0.028 g streptomycin, 3.2 g agar and 80 ml water. Cotton leaf powder was prepared from freshly picked young, healthy cotton leaves which had been rapidly frozen in liquid nitrogen and freeze dried before they were ground to a fine powder using a mortar and pestle. Test diets contained the cyclic Kalata B1 peptide at 0.15% w/v of diet (high kalata) or 0.03% w/v of diet (low kalata), linear peptide (backbone chain opened between residues 7 and 8 [see FIG. 1A] at 0.15% w/v of diet. The control diet contained casein at 0.15% w/v of diet. The diet was mixed and dispensed as described for the Haricot bean diet and the bioassay was conducted in the same manner.
Newly hatched larvae were fed on an artificial diet based on cotton leaves, with and without added Kalata B1. […] Larvae on the Kalata B1 diet were about 18% of the size of those fed on the control diet.
Kalata peptides isolated from leaves are normally cyclic. The inventors sought to determine whether cyclization was essential for biological activity against insects. Newly hatched H. armigera larvae were added to an artificial diet based on cotton leaves which had been supplemented with cyclic Kalata B1 at either 0.15% w/v of diet or 0.03% w/v of diet. Growth of these larvae was compared to growth of larvae on diet with no added peptide or with added linear Kalata B1 at 0.15% w/v of the diet. Linear Kalata B1 is identical to cyclic Kalata B1 except the backbone chain is open between residues 7 and 8 [see FIG. 1A].

Test [2] concerns Helicoverpa punctigera larvae. Put plainly: Bioassay with Haricot bean artificial diet, growth and development of larvae. It counts as in vivo. The protocol:
Helicoverpa punctigera larvae were raised on artificial diets based on Haricot beans (Teakle et al. (13)). One litre of diet was composed of 234 g Haricot beans, 14 g agar, 700 ml water, 35 g Tortula yeast, 50 g wheatgerm, 3.5 g ascorbic acid, 1.1 g sorbic acid, 2.2 g p-hydroxybenzoic acid methyl ester, 0.2 g ampicillin, 0.2 g streptomycin, 16 mg prochloraz. The beans were soaked overnight in water, drained and homogenized to a fine paste. Wheatgerm, yeast and 300 ml of water were added. The agar was dissolved in 400 ml of boiling water and added to the mixture. The mixture was cooled to 50° C. before the addition of the remaining ingredients. The blended diet was poured into trays and after setting was used immediately or stored at −20° C. for no longer than two weeks. The test diet was supplemented with the Kalata B1 peptide (0.825 μmol/g of diet). Twenty newly emerged neonates were added to each diet and mortality was recorded every two days. Weight gain was recorded at the sixth day and then every second day thereafter. The larvae were reared in 1.5 ml eppendorfs microfuge tubes (one larva/tube) until day eight when they were transferred to individual plastic containers with lids (Solo (trademark) plastic portion cups, 28 ml) at the eight day. Larvae were fed small amounts of diet (40 mg) initially that was replaced as required to provide a continuous supply. The larvae were kept in a temperature controlled room at 25±1° C., 16:8 (L:D).
Most larvae on the control diet, however, had achieved fifth instar (FIGS. 13B, C).

For the substance “Kalata B1: 29 amino acid peptide with cyclic backbone and cystine knot from O. affinis (SEQ ID NO: 41) (cyclo(VCGETCVGGTCNTPGCTCSWPVCTRNGLP); disulfide (positions not given here); also: cystine knot, pairings not given here; listed as Oldenlandia affinis)”, the “size of larvae relative to those fed on the control diet” value in test [1] (cotton leaf diet with added Kalata B1, 12 days) is given as “about 18%”. In addition, in test [1] (cotton leaf diet, 12 days, control larvae at third to fourth instar), the “instar stage of development reached after 12 days” value is “failed to progress past the first instar stage of development”. In addition, in test [1] (cyclic form at one fifth the concentration of the linear form (0.03% vs 0.15% w/v of diet)), the “effect on growth compared with the linear form” value was “more significant effect on growth”. In test [2] (0.825 μmol/g of diet, 16 days, most control larvae at fifth instar), the “instar stage of development reached by survivors after 16 days” value is reported as “none of the 12 survivors had progressed past the first instar stage of development”. In addition, the “larvae that failed to survive past day 16” value in test [2] (0.825 μmol/g of diet, day 16) is given as 50%. Besides, the “mortality in the first six days” value in test [2] (0.825 μmol/g of diet, first six days, twenty neonates) was “No mortality”. The “size of larvae after 16 days on artificial diet” value in test [2] (16 days, control diet ~30 mm (FIG. 13C)) is roughly 5 mm. Further, in test [2] (Haricot bean diet with peptide 0.825 μmol/g of diet), the “effect on the development of larvae” value is on record as “significant effect”.

For the origin of these results see US8242250B2, “Nucleic acid molecule encoding a cystine knot polypeptide” (The University of Queensland, priority 1999, dated 2012).
